Experiment [1] concerns the target T1, rh Type II-14 kDa PLA2 (Homo sapiens, UniProt P14555).
T1 sequence (P14555 21-144): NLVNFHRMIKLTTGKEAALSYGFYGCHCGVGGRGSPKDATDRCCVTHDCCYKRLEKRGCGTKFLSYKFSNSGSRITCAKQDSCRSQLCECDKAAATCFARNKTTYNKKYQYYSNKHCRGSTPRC
The experiment is described as follows: Assay (a): Phospholipase A2 assay, acylhydrolysis of [3H]-AA-E. coli. The experiment is classed as biochemical. As to conditions: generally tested at 50 μm levels. As to the method: Phospholipase A2 activity of rh Type II-14 kDa PLA2 or PLA2 semi-purified from human synovial joint fluid was measured by the acylhydrolysis of high specific activity (NEN)[^3 H]-AA-E. coli (0.5 mCi/5nmol PL Pi) as previously described in Marshall et at., J. Rheumatology, 18:1, pp59-65 (1991). […] [Predominately used herein was rh Type II 14 kDa PLA2, or alternatively bovine pancreatic PLA2 was also be used]. The reaction mixture ([…] total volume) contained 25 mM HEPES, pH 7.4, 150 mM NaCl, 5 mM CaCl2 and [^3 H]-AA-E. coli (low specific activity; 5-8 nmol PL Pi per assay). Assays were incelbated for a time predetermined to be on the linear portion of a time versus hydrolysis plot. Experiments were conducted with final % hydrolysis values ranging from 2% (400-1000 dpm) to 10% (2000-5000 dpm) acylhydrolysis after blank correction. Reactions were terminated by the addition of 1.0 mL tetrahydrofuran (THF). […] Radiolabel in this eluate was quantitated by liquid scintillation counting. Results were expressed as % of fatty acid hydrolyzed ([sample dpms-non-specific (blank) dpms/total dpms]×100) or specific activity which was calculated from hydrolysis values found in the linear portion of time versus % hydrolysis plots (pmol free fatty acid hydrolyzed mg/min). […]

The test system of experiment [2] is human monocytes. Nature of the experiment: Assay (f): stimulated eicosanoid (PGE2, LTC4) release by human monocytes. The experiment is classed as cell-based. The note with it: human monocyte cells, A23187. Here is the method:
Leukocyte-rich leukopaks obtained from Biological Specialties (Lansdale, Pa.) are collected from male volunteers who are not taking anti-inflammatory drugs. Leukopaks are centrifuged (90×g for 15 min) twice to remove the platelet-rich plasma. The cell pellet is washed by centrifugation and are resuspended in HBSS without Ca^2+ or Mg^2+. Histopaque 1077 is layered under the cell suspension and centrifuged at 400×g for 30 min to obtain the buffy coat. The interfacial buffy coat, containing monocytes and lymphocytes, is removed and saved. The buffy coat is washed twice with HBSS without Ca^2+ or Mg^2+ by centrifugation. The cell pellet (4-6×10^8 cells/30 mls) is resuspended in iso-osmotic media (RPMI-1640, 10% heat inactivated fetal bovine serum (FBS), 0.2 mM L-glutamine, 2.5 mM HEPES) and layered over an equal volume of 46% Percol mixture (10×PBS/Percol; 9.25/0.75) and 54% iso-osmotic media and centrifuged for 30 min at 1000×g (Marshall and Roshak, Biochem. Cell Biol. 71: 331-339, 1993). The monocyte population located at the interface of the Percoll gradient is removed and washed twice in HBSS without Ca^2+ or Mg^2+.
Monocytes (5×10^6 /ml are incubated as a suspension in serum-free RPMI-1640 medium containing the vehicle DMSO (<1%) or drug for 30 min at 27° C. after which vehicle or stimuli is added for the indicated time. The stimulating agent is solubilized in DMSO and appropriate vehicle controls are included in all experiments. The amount of stimuli is chosen from the linear portion of a concentration versus product curve usually representing 60-80% maximal stimulation over the indicated incubation time at 37° C. (A23187, 1 μM, (15 min). The reaction is terminated by reduction of pH through addition of citric acid and centrifugation (10 min, 400×g, 4° C.). Cell viability is monitored before and after experiments using trypan blue exclusion. The cell-free media is decanted and stored at -70° C. until analyzed. Prostaglandin E2 and LTC4 are directly measured in cell-free media using enzyme immunoassay (EIA) kits purchased from Caymen Chemical Co. (Ann Arbor, Mich.) Sample or standard dilutions are made with appropriate media and analyzed in triplicate. Results are obtained by extrapolation from a standard curve prepared in the media and expressed as pg or ng/ml of sample.

Experiment [3] has as its system CoA-IT. The experiment is described as follows: Assay (b): CoA-IT activity in U937 cell microsomes. The experiment is classed as biochemical, human.
Source text: The following is a method to measure CoA-IT activity and the effects of compounds on CoA-IT activity. The assay is based upon mixing cellular material containing CoA-IT activity with a stable lyso phospholipid such as 1-alkyl-2-acyl-GPC and measuring the production of phospholipid product such as 1-alkyl-2-acyl-GPC occurring in the absence of added CoA or CoA-fatty acids.
Any inflammatory cell that contains high levels of CoA-IT activity can be used, such as neutrophils, macrophages or cell lines such as U937 cells. U937 cells were obtained from American Type Culture Collection and grown in RPMI-1640 media (Gibco, Grand Island, N.Y.) supplemented with 10% fetal bovine serum (Hyclone, Logan, Utah) at 37° C., 5% CO2. Cells were grown without differentiation (basal state) by any agent, such as dimethyl sulfoxide. As used herein, "inflammatory cells" include, but are not limited to neutrophils, macrophages, monocytes, lymphocytes, eosinophils, basophils, and mast cells.
Microsomes are prepared using standard techniques. […]
CoA-IT activity is measured in 1.5 ml centrifuge tubes in a total volume of 100 ul. […] An aliquot of the chloroform-extracted materials are separated, usually by TLC in chloroform/methanol/acetic acid/water (50:25:8:4, v/v), visualized by radioscanning (Bioscan) and the product, [3H ]1-alkyl-2-acyl-GPC, is scraped and quantified by liquid scintillation spectroscopy. […]
The mark [4] stands for this setting: read-out: IC50 for LTC4 release.

One may read the IC50 as the midpoint of a concentration-inhibition curve.

Molecules are shown by their SMILES. Where two headings read alike, the source gives them in different places.

Take `NC(=O)N(O)CCC(CSc1ccc(Cc2ccccc2)cc1)NC(=O)CCCCCCc1ccccc1` (racemic) [Example 1, N-[3-(7-phenylheptylamido)-4-(4-phenylmethyl)phenylthio]-butyl-N-hydroxy urea]: the PLA2 inhibition entry in experiment [1] is recorded as “positive PLA2 inhibition”. In addition, the IC50 in experiment [2] (setting [4]) was 220 nM; in experiment [2] (read-out: IC50 of PGE2 release), under 100 nM. In experiment [3] (generally tested at 50 μm levels), the CoA-IT inhibitory activity entry was “positive CoA-IT inhibitory activity”.
For the molecule `N#CCC(CSc1ccc(Cc2ccccc2)cc1)NC(=O)CCCCCCc1ccccc1` (centres unmarked) [Example 2, [3-(7-Phenylheptylamido)-4-(4-phenylmethyl)phenylthio]butylnitrile], in experiment [1], the PLA2 inhibition result is recorded as “positive PLA2 inhibition”. Further, the IC50 was 521 nM in experiment [2] (setting [4]) and about 100 nM in experiment [2] (read-out: IC50 of PGE2 release). Further, in experiment [3] (at levels of greater than 30 uM), the CoA-IT inhibitory activity result is on record as “did not demonstrate positive activity”.

Source of the values: patent publication US5496855A, “Anti-inflammatory compounds” (SmithKline Beecham Corp., priority 1995, dated 1996).
